Measured values reported in BindingDB's records for doi:10.1021/acsmedchemlett.8b00255 (2018).

Target: T1, Interleukin-23 receptor (Homo sapiens, UniProt Q5VWK5)
T1 sequence (Q5VWK5 whole entry): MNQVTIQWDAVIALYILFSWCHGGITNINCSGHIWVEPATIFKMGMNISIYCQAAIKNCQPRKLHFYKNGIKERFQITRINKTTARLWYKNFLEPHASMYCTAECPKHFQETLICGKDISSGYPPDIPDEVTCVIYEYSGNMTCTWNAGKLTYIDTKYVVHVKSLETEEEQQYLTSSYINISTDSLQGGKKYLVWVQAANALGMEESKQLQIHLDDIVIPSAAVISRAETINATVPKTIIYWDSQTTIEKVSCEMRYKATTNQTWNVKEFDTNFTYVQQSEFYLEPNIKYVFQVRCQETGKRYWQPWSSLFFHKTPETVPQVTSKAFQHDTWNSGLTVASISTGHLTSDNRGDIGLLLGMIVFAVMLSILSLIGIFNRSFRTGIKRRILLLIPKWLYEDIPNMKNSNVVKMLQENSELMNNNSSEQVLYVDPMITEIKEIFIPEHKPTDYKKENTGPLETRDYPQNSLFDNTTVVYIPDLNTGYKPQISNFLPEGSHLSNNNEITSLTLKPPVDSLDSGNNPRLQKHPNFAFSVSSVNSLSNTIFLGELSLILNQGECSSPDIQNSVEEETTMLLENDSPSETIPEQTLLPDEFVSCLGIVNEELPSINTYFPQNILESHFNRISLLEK
Experiment: Binding affinity to recombinant human flag/His-tagged IL-23R (1 to 353 residues) expressed in HEK293F cells assessed as dissociation rate constant measured over 90 secs by surface plasmon resonance assay

koff: 0.0274 s⁻¹
SMILES: CC(=O)N[C@H]1CCSC[C@@H](C(=O)N[C@@H](Cc2ccc(OCCN)cc2)C(=O)N[C@@H](Cc2c[nH]c3ccccc23)C(=O)N[C@@](C)(CCCCN)C(=O)N[C@@H](CCC(=O)O)C(=O)N[C@@H](CC(N)=O)C(=O)NCC(N)=O)NC(=O)[C@H](CCC(N)=O)NC(=O)[C@H](Cc2c[nH]c3ccccc23)NC(=O)[C@H]([C@@H](C)O)NC(=O)[C@H](CCC(N)=O)NC1=O
